This note sets out measurements from ChEMBL document CHEMBL4052663, “Synthesis, antiviral evaluation and molecular docking studies of N4-aryl substituted/unsubstituted thiosemicarbazones derived from 1-indanones as potent anti-bovine viral diarrhea virus agents” (Bioorg Med Chem, 2017).

A short description of series [1]: Cytotoxicity against bovine MDBK cells assessed as reduction in cell viability after 3 days by MTS/PES assay. The series is classed as cell-based, Bos taurus. Particulars: cattle.
The nature of series [2]: Antiviral activity against Bovine viral diarrhea virus 1-NADL infected in bovine MDBK cells assessed as reduction in plaque forming units after 72 hrs by crystal violet staining-based assay. The series is classed as functional, cell-based. To be noted: Bovine viral diarrhea virus isolates and strains.
A short description of series [3]: Selectivity index, ratio of CC50 for bovine MDBK cells to EC50 for Bovine viral diarrhea virus 1-NADL. The series is classed as toxicity. To be noted: cattle, read-out: Ratio CC50/EC50.
The subject of series [4] is Bovine viral diarrhea virus 1. As to the kind of experiment: Antiviral activity against TSC-resistant Bovine viral diarrhea virus 1 harboring NS5B N264D/A392E double mutant infected in bovine MDBK cells assessed as reduction in virus induced cytopathic effect after 72 hrs by MTS/PES assay. Format: functional, cell-based. To be noted: Bovine viral diarrhea virus isolates and strains.

Series [5] deals with Bovine viral diarrhea virus 1. Briefly: Antiviral activity against Bovine viral diarrhea virus 1 ATCC VR 534 infected in bovine MDBK cells assessed as reduction in virus induced cytopathic effect at 25 uM treated up to 4 hrs post infection measured after 48 hrs by MTS/PES assay. Format: functional, cell-based.
In series [6] the test system is Bovine viral diarrhea virus 1. As to the kind of experiment: Antiviral activity against wild type Bovine viral diarrhea virus 1 ATCC VR 534 infected in bovine MDBK cells assessed as reduction in virus induced cytopathic effect after 72 hrs by MTS/PES assay. The series is classed as functional, cell-based. To be noted: Bovine viral diarrhea virus isolates and strains, ATCC VR 534, MDBK.

Series [7] deals with Bovine viral diarrhea virus 1. As to the kind of experiment: Ratio of EC50 for TSC-resistant Bovine viral diarrhea virus type 1 harboring NS5B N264D/A392E double mutant to EC50 for wild type Bovine viral diarrhea virus type 1 ATCC VR 534. The series is classed as functional.

Structures are written as SMILES. Activity calls are given as the source filed them. The calls are words filed in the database; no cut-off is given here.

Take `COc1cc2c(cc1OC)/C(=N/NC(=S)Nc1ccc(Cl)cc1)CC2`: in series [1], the CC50 at 72 h was over 10 µM. The EC50 in series [2] amounted to 6.6 µM. In series [3], the selectivity ratio was over 1.5.

`COc1ccc(NC(=S)N/N=C2\CCc3ccccc32)cc1`: in series [1], the CC50 at 72 h is over 10 µM. The EC50 in series [2] is over 10 µM.

On to `Fc1ccc(NC(=S)N/N=C2\CCc3ccccc32)cc1`, for which the CC50 at 72 h in series [1] is over 20 µM. Besides, in series [2], the EC50 was over 20 µM.

Take `COc1cc2c(cc1OC)/C(=N/NC(=S)Nc1ccc(F)cc1)CC2`: the 50% cytotoxic concentration (CC50) at 72 h in series [1] is over 20 µM. Further, the EC50 in series [2] came out at 4 µM. In addition, the selectivity ratio in series [3] was over 5.

Turning to `S=C(N/N=C1\CCc2ccccc21)Nc1ccc(Cl)cc1`, in series [1], the CC50 at 72 h was over 20 µM. Also, the EC50 in series [2] was over 20 µM.

For the molecule `NC(=S)N/N=C1\CCc2cc(F)ccc21`, the CC50 at 72 h in series [1] came out at 41.9 µM. Further, the EC50 in series [2] is 9 µM. In series [3], the selectivity ratio was 5.4.

Turning to `COc1ccc(NC(=S)N/N=C2\CCc3cc(OC)c(OC)cc32)cc1`, in series [1], the CC50 at 72 h was over 20 µM. Also, the EC50 in series [2] turned out to be 12.9 µM. The selectivity ratio in series [3] was over 1.6.

In the case of `O=[N+]([O-])c1ccc(NC(=S)N/N=C2\CCc3ccccc32)cc1`, the CC50 at 72 h in series [1] is over 10 µM. Besides, the concentration for a half-maximal effect (EC50) in series [2] was over 10 µM.

As to `COc1cc2c(cc1OC)/C(=N/NC(=S)Nc1ccc(C)cc1)CC2`, in series [1], the half-maximal cytotoxic concentration (CC50) at 72 h is over 20 µM. Further, the EC50 in series [2] stood at 8.8 µM. The selectivity ratio in series [3] was over 2.3.

On to `NC(=S)N/N=C1\CCc2ccc([N+](=O)[O-])cc21`, for which the EC50 in series [4] worked out at 1.07 µM; in series [2] it was 2.7 µM; in series [6], 1.04 µM. Besides, the CC50 at 72 h in series [1] is over 25 µM. For the same molecule, the inhibition entry in series [5] was “Active”. Moreover, in series [3], the selectivity ratio was over 9.3.

In the case of `Cc1cc(Br)c(C)c2c1/C(=N/NC(N)=S)CC2`, the CC50 at 72 h in series [1] was over 100 µM. The EC50 in series [2] came to 7.4 µM. Also, the selectivity ratio in series [3] was over 13.5.

With `Cc1ccc(NC(=S)N/N=C2\CCc3ccccc32)cc1`, the CC50 at 72 h in series [1] is over 20 µM. The 50% effective concentration (EC50) in series [2] is over 20 µM.

On to `NC(=O)c1ncn([C@@H]2O[C@H](CO)[C@@H](O)[C@H]2O)n1` [RIBAVIRIN], for which, in series [2], the EC50 worked out at 7.7 µM. For the same molecule, in series [3], the selectivity ratio was 7.1.

As for `NC(=S)N/N=C1\CCc2c1cccc2[N+](=O)[O-]`, the CC50 at 72 h in series [1] turned out to be 84.6 µM. The EC50 in series [2] came out at 6.1 µM. In series [3], the selectivity ratio was determined as 14.2.

As to `S=C(N/N=C1\CCc2ccccc21)Nc1ccccc1`, the CC50 at 72 h in series [1] was over 10 µM. In addition, the EC50 in series [2] is over 10 µM.

For the molecule `COc1cc2c(cc1OC)/C(=N/NC(N)=S)CC2`, the EC50 in series [4] is over 80 µM; in series [2] it was 3.8 µM; in series [6], 1.95 µM. Further, the CC50 at 72 h in series [1] was over 80 µM. The “Ratio EC50” value in series [7] is on record as over 41. Also, the selectivity ratio in series [3] was over 21.1.

In the case of `COc1cc2c(cc1OC)/C(=N/NC(=S)Nc1ccc([N+](=O)[O-])cc1)CC2`, the results for the EC50 in series [4], in series [2] and in series [6] were over 10 µM, 0.7 µM and 0.45 µM, respectively. Also, the CC50 at 72 h in series [1] is over 10 µM. Also, the “Ratio EC50” value in series [7] is reported as over 22. In series [3], the selectivity ratio was over 14.3.

In the case of `COc1cc2c(cc1OC)/C(=N/NC(=S)Nc1ccccc1)CC2`, in series [1], the CC50 at 72 h is over 10 µM. Besides, the EC50 in series [2] was found to be 8.4 µM. Further, the selectivity ratio in series [3] was over 1.2.
